Here are results for 2 compounds from ChEMBL document CHEMBL1158265, “Isoprenyl phenyl ethers from liverworts of the genus Trichocolea: cytotoxic activity, structural corrections, and synthesis” (J Nat Prod, 1996).

For one series, the system named is Candida albicans. The series is described as follows: Antifungal activity against Candida albicans at 60 ug/disk. The series is classed as functional. The conditions noted are these: read-out: IZ.
Series [1] deals with Trichophyton mentagrophytes. The series is described as follows: Antifungal activity against Trichophyton mentagrophytes at 60 ug/disk. Format: functional. The conditions noted are these: read-out: IZ.
Series [2] is described as follows: Cytotoxicity against african green monkey BSC1 cells at 60 ug/disk. The series is classed as cell-based. The conditions noted are these: chlorocebus aethiops, bsc-1.

For `COC(=O)c1ccc(OCC=C(C)C)c(OC)c1`, the zone of inhibition at 60 µg/disc was 1 mm with Candida albicans and 2 mm in series [1]. The same compound displayed an Activity in series [2] of 50%.

For `COC(=O)c1ccc(O)c(OC)c1` [METHYL VANILLATE], the zone of inhibition at 60 µg/disc (in the series on Candida albicans; in series [1]) was 0 mm in each case. The same compound gave an Activity in series [2] of 25%.
